Values of other authors, collected in patent publication US6660299B2, “Modified release pharmaceutical formulation comprising amoxycillin” (Beecham Pharmaceuticals Limited, priority 1999, dated 2003).

Details: in vivo

For `CC1(C)S[C@@H]2[C@H](NC(=O)[C@H](N)c3ccc(O)cc3)C(=O)N2[C@H]1C(=O)O` [amoxycillin], the excretion half-life is listed as 1.3 h.
